Measurements from US7211584B2, “5-HT7 receptor ligands” (Laboratorios del Dr. Esteve, S.A., priority 2004, dated 2007).
Where a name gives a salt, the structure may show the parent alone.

target: T1, Human Serotonin Receptor, Subtype 7 (h5HT7) (Homo sapiens, UniProt P34969); assay: Radioligand binding, cloned human serotonin receptor subtype 7 (h5HT7) expressed in CHO cells, [125I]LSD; details: h5HT7 in CHO cells on Flashplate; [125I]LSD 0.82 nM; room temperature 240 minutes; triplicate; read-out: 5-HT7 IC-50
T1 construct: purchased PerkinElmer 6120512; host or cells: CHO cells (membranes)
T1 sequence (P34969 whole entry): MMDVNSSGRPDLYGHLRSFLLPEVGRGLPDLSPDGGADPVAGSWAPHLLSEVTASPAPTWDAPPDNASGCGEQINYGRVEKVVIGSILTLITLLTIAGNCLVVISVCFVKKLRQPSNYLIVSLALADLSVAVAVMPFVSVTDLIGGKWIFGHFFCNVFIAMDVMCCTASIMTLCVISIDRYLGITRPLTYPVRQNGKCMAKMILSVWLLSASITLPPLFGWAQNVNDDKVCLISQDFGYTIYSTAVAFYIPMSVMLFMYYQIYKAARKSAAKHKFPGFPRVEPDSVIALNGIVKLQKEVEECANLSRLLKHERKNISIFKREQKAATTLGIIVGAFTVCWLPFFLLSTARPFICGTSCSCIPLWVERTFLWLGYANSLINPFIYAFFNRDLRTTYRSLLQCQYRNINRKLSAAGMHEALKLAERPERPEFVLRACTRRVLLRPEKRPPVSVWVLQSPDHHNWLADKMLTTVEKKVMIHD
Experimental: Radioligand binding assays were performed using the Cloned Human Serotonin Receptor, Subtype 7 (h5HT7), expressed in CHO cells, coated on Flashplate (Basic FlashPlate Cat.: SMP200) from PerkinElmer (Cat.: 6120512). The protocol assay was essentially the recommended protocol in the Technical Data Sheet by PerkinEmer Life and Analytical Sciences. The Mass membrane protein/well was typically 12 μg and the Receptor/well was about 9–10 fmoles. The Flashplate were let equilibrate at room temperature for one hour before the addition of the components of the assay mixture. The binding buffer was: 50 mM Tris-HCl, pH 7.4, containing 10 mM MgCl2, 0.5 mM EDTA and 0.5% BSA. The radioligand was [^125I]LSD at a final concentration of 0.82 nM. Nonspecific binding was determined with 50 μM of Clozapine. The assay volume was 25 μl. TopSeal-A were applied onto Flashplate microplates and they were incubated at room temperature for 240 minutes in darkness. The radioactivity were quantified by liquid scintillation spectrophotometry (Wallac 1450 Microbeta Trilux) with a count delay of 4 minutes prior to counting and a counting time of 30 seconds per well. Competition binding data were analyzed by using the LIGAND program (Munson and Rodbard, LIGAND: A versatile, computerized approach for characterization of ligand-binding systems. Anal. Biochem. 107: 220–239, 1980) and assays were performed in triplicate determinations for each point.

Row | Compound | IC50
1 | O=S(=O)(NCCCN1CCc2ccccc2C1)c1ccccc1 [Compound 35, N-[3-(3,4-Dihydro-1H-isoquinolin-2-yl)-propyl]-benzenesulfonamidehydrochloride] | 136 nM
2 | COc1cc2c(cc1OC)CN(CCCNS(=O)(=O)c1cc(Cl)ccc1Cl)CC2 [Compound 43, 2,5-Dichloro-N-[3-(6,7-dimethoxy-3,4-dihydro-1H-isoquinolin-2-yl)-propyl]-benzenesulfonamidehydrochloride] | 89.5 nM
3 | COc1cc2c(cc1OC)CN(CCCNS(=O)(=O)c1cc(Cl)c(F)cc1F)CC2 [Compound 48, 5-Chloro-N-[3-(6,7-dimethoxy-3,4-dihydro-1H-isoquinolin-2-yl)-propyl]-2,4-difluoro-benzenesulfonamide] | 64.8 nM

More lines, now with the values ahead:

Row | IC50 | Compound
4 | 384 nM | O=S(=O)(NCCCN1CCc2ccccc2C1)c1cccc2ccccc12 [Compound 33, Naphthalene-1-sulfonic acid[3-(3,4-dihydro-1H-isoquinolin-2-yl)-propyl]-amide hydrochloride]
5 | 112 nM | COc1cc(C)c(S(=O)(=O)NCCCN2CCc3ccccc3C2)c(C)c1C [Compound 40, N-[3-(3,4-Dihydro-1H-isoquinolin-2-yl)-propyl]-4-methoxy-2,3,6-trimethyl-benzenesulfonamidehydrochloride]
